These results are taken from US11999739B2, “Antimicrobials methods of making and using the same” (BIOVERSYS AG, priority 2016, dated 2024).

In one data set the test system is Enterobacteriaceae. As to the kind of experiment: CLSI broth microdilution MIC, multiresistant Enterobacteriaceae panel. Type of data set: cell-based. The conditions noted are these: for MIC, peak of unimodal distribution: 68 Enterobacteriaceae, FIG. 1. The protocol:
(§1) Four compounds, including Compound Nos. 120 and 162 of the present application (RX-04B and RX-04C, respectively) were tested against (i) multiresistant Enterobacteriaceae and Acinetobacter with carbapenemases; (ii) Enterobacteriaceae with MCR-1; and (iii) P. aeruginosa with altered efflux (see Tables 4 and 5). In this case, MCR-1 is relevant because its activity reduces the negative charge of lipopolysaccharides, potentially affecting binding of poly-basic molecules such as the compounds tested herein, as well as polymyxins.
(§2) MICs of the four tested compounds and comparators (amikacin, cefepime, colistin, meropenem and tigecyline) were determined by CLSI broth microdilution using pre-prepared plates (Trek Diagnostic Systems) (CLSI Approved Standard M7-A10). Carbapenemase and mcr-1 genes were detected by PCR or sequencing. Efflux levels in P. aeruginosa isolates were inferred by interpretive reading of antibiogram data.
In general terms: Broth dilution looks for growth in wells or tubes with falling amounts of substance.

The next data set relates to CPE. As to the kind of experiment: CLSI broth microdilution MIC, carbapenemase-producing Enterobacteriaceae (CPE). Type of data set: cell-based. The following applies: 35/36 (97%) of CPE, FIG. 2. On the procedure:
as §1, §2

The subject of the next data set is MCR-1 isolates. As to the kind of experiment: CLSI broth microdilution MIC, Enterobacteriaceae with MCR-1. Type of data set: cell-based. The conditions noted are these: all MCR-1 isolates (n=14), FIG. 3. The protocol:
as §1, §2

Another data set concerns E. coli DH10B. As to the kind of experiment: CLSI broth microdilution MIC, E. coli DH10B recipient. Type of data set: cell-based. The protocol:
as §2

The test system of data set [1] is E. coli DH10B mcr-1 transformant. As to the kind of experiment: CLSI broth microdilution MIC, E. coli DH10B mcr-1 transformant. Type of data set: cell-based. On the procedure:
as §2

Another data set relates to A. baumannii. In words: CLSI broth microdilution MIC, A. baumannii. Type of data set: cell-based. On the procedure:
as §1, §2

The test system of another data set is P. aeruginosa. In words: CLSI broth microdilution MIC, P. aeruginosa with altered efflux. Type of data set: cell-based. On the procedure:
as §1, §2

In data set [2] the test system is Staphylococcus aureus (S. aureus) 11540 strain. In words: Standard microdilution MIC assay, S. aureus. Type of data set: cell-based. The method, boiled down:
(§3)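 Broth microdilution per CLSI M7-A8 guidelines, with reference-strain quality control run in the same design; MIC determined per strain. Activity scored +/− against a 16 micrograms/mL cutoff.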

Data set [3] deals with Escherichia coli strain ATCC25922. As to the kind of experiment: Standard microdilution MIC assay, E. coli. Type of data set: cell-based. The method, boiled down:
as §3

Data set [4] is described as follows: Rat five day safety study (bodyweight gain, reticulocyte count change). Type of data set: in vivo. The conditions noted are these: male Sprague-Dawley juvenile rats, n=5, once daily slow intravenous infusion for 5 days at or near maximum-tolerated dose; for BW Result: bodyweight gain; for Hematology Result: reticulocyte count change. The protocol:
The compounds of the present disclosure were tested for safety in a multi-day dosing study in rat. Key parameters that were monitored are bodyweight gain and hematological changes, particularly changes in reticulocyte counts. Male Sprague-Dawley (CD) juvenile rats were received from Charles River with double jugular vein catheters. For each compound, n=5. […] Bodyweights were recorded daily for the first 5 days (during the dosing period), then 2 to 3 times per week thereafter. Blood was collected via a jugular vein catheter into EDTA anti-coagulated tubes for complete blood counts (CBC) on Days 0 (baseline), 3 and 7. On Day 22, blood was drawn via a cardiac puncture into EDTA coated tubes for final CBC, and serum separator tubes for the complete clinical chemistry profile. The blood that was collected into serum separator tubes was allowed to clot at room temperature for approximately 30 minutes, spun in a centrifuge at 2000 rpm, and the resulting serum was aliquoted. All samples were sent on wet ice to Charles River Labs for analysis.

[5] abbreviates: Escherichia coli, read-out: MIC.
Where [6] appears, read: Pseudomonas aeruginosa, almost half (48%) of the MICs, FIG. 5, read-out: MIC.

≈ marks a conversion by molar mass, not a printed value. Read-outs that look alike come from different tables or passages of the source.

As usually defined, the MIC is the lowest concentration found to suppress growth. Take `C[C@H](N)CCCc1cc(OC(F)(F)F)c(F)c(-c2cc3cn(-c4ccc([C@@H]5CCC[C@@H](CCNC(=N)N)N5)cc4)c(=O)nc3[nH]2)c1` [RX-04A]: the MIC was 0.25 to 2 µg/mL (≈ 0.389 to 3.11 µM) in the data set on Enterobacteriaceae (67/68 (>98%) MICs); 1 to 2 µg/mL (≈ 1.56 to 3.11 µM) in the data set with Enterobacteriaceae (MICs mostly (summary)); 0.25 µg/mL (≈ 0.389 µM) with E. coli DH10B (setting [5]); 0.25 µg/mL (≈ 0.389 µM) in [1] (Escherichia coli); 1 to 2 µg/mL (≈ 1.56 to 3.11 µM) with A. baumannii (Acinetobacter baumannii, 7/10 values, read-out: MIC); 1 to 2 µg/mL in the data set on A. baumannii (MICs mostly (summary)). For the same molecule, the MIC lay in the range of 1 to 4 µg/mL in the data set on P. aeruginosa (MICs mostly (summary)) and 1 to 4 µg/mL (≈ 1.56 to 6.22 µM) in the data set on P. aeruginosa (Pseudomonas aeruginosa, 19/20 (95%) isolates, read-out: MIC). In addition, the “MIC, peak of unimodal distribution” value in the data set on Enterobacteriaceae was determined as 1 µg/mL. Besides, the “MIC relative to the MIC for E. coli ATCC 25922” value in the data set with CPE is not above 4 fold; with MCR-1 isolates it was not above 2 fold. In the data set on P. aeruginosa (P. aeruginosa isolates with elevated efflux), the “MIC change in isolates with elevated efflux” value is “not raised”.

As to `C[C@H](N)CCCc1cc(Cl)c(F)c(-c2cc3cn(-c4ccc([C@@H]5CCC[C@@H](CCNC(=N)CN)N5)cc4)c(=O)nc3[nH]2)c1` [RX-04D], the “MIC, peak of unimodal distribution” value against Enterobacteriaceae was 2 µg/mL. In addition, the MIC in the data set on E. coli DH10B (setting [5]) is 1 µg/mL (≈ 1.65 µM); in data set [1] (Escherichia coli), 1 µg/mL (≈ 1.65 µM); in the data set on P. aeruginosa (setting [6]) it was not below 16 µg/mL. The “relative activity among analogues” value in the data set with A. baumannii (10 A. baumannii, FIG. 4) is given as “least active analogue”.

Regarding `CSc1cc(-n2cc3cc(-c4cc(CCC[C@@H](N)C5CC5)cc(Cl)c4F)[nH]c3nc2=O)ccc1[C@@H]1CCC[C@@H](CCNC(=N)N)N1` [RX-04B], the “MIC, peak of unimodal distribution” value against Enterobacteriaceae came to 1 µg/mL. Besides, the MIC (in the data set on E. coli DH10B (setting [5]); in [1] (Escherichia coli)) was 0.5 µg/mL (≈ 0.752 µM) each time.

For `N=C(N)NCC[C@@H]1CCC[C@@H](c2ccc(-n3cc4cc(-c5cc(CCC[C@@H](N)CO)cc(Cl)c5F)[nH]c4nc3=O)cc2F)N1` [RX-04C], the “MIC, peak of unimodal distribution” value against Enterobacteriaceae is 2 µg/mL. Moreover, the MIC in the data set with E. coli DH10B (setting [5]) was 0.5 µg/mL (≈ 0.797 µM); in [1] (Escherichia coli), 0.5 µg/mL (≈ 0.797 µM); with P. aeruginosa (setting [6]) it was not below 16 µg/mL.

colistin [reference compound]: the MIC against E. coli DH10B amounted to 0.25 µg/mL; in data set [1] (MCR-1 Transformant) it was 4 µg/mL.

Consider `CC(=N)NCC[C@@H]1CNC[C@@H](c2ccc(-n3cc4cc(-c5cc(CCC[C@H](C)N)cc(Cl)c5F)[nH]c4nc3=O)cc2)N1` [Compound 50], for which the MIC in data set [2] and in data set [3] was not above 16 µg/mL throughout. The “BW Result” value in data set [4] was “+ (a “+” in “BW result” indicates that the rat exhibited a weight gain of 20% or more)”. Further, in data set [4], the “Hematology Result” value is given as “+ (a “+” in “Hematology result” indicates indicates that the rat exhibited a reticulocyte count change of 65% or less)”.

The molecule `COC[C@H](N)CCCc1cc(-c2cc3cn(-c4ccc([C@@H]5CCC[C@@H](CCNC(C)=N)N5)cc4)c(=O)nc3[nH]2)cc(C(F)(F)F)c1` [Compound 200] returned an MIC in data set [2] not above 16 µg/mL. In addition, the MIC in data set [3] was not above 16 µg/mL. Besides, in data set [4], the “BW Result” value is listed as “+ (a “+” in “BW result” indicates that the rat exhibited a weight gain of 20% or more)” and the “Hematology Result” value was “− (a “−” indicates indicates that the rat exhibited a reticulocyte count change of greater than 65%)”.

`CSc1cc(-n2cc3cc(-c4cc(CCC[C@@H](N)C5CC5)cc(Cl)c4F)[nH]c3nc2=O)ccc1[C@@H]1CCC[C@@H](CCNC(C)=N)N1` [Compound 120]: in data set [2], the MIC is not above 16 µg/mL. Moreover, the MIC in data set [3] is not above 16 µg/mL. Also, in [4], the “BW Result” value is “+ (a “+” in “BW result” indicates that the rat exhibited a weight gain of 20% or more)” and the “Hematology Result” value is “+ (a “+” in “Hematology result” indicates indicates that the rat exhibited a reticulocyte count change of 65% or less)”.

Consider `CC(=N)NCC[C@@H]1CCC[C@@H](c2c(F)cc(-n3cc4cc(-c5cc(CCC[C@H](C)N)cc(Cl)c5F)[nH]c4nc3=O)cc2F)N1` [Compound 127], for which the MIC in data set [2] was not above 16 µg/mL. Further, in [3], the MIC is not above 16 µg/mL. In [4], the “BW Result” value is reported as “+ (a “+” in “BW result” indicates that the rat exhibited a weight gain of 20% or more)” and the “Hematology Result” value was “+ (a “+” in “Hematology result” indicates indicates that the rat exhibited a reticulocyte count change of 65% or less)”.

For the molecule `CC(=N)NCC[C@@H]1CCC[C@@H](c2ccc(-n3cc4cc(-c5cc(CCC[C@H](C)N)cc(Cl)c5F)[nH]c4nc3=O)cc2S(C)(=O)=O)N1` [Compound 117], the MIC in data set [2] is not above 16 µg/mL. For the same molecule, in [3], the MIC was not above 16 µg/mL. In addition, in data set [4], the “BW Result” value was “− (a “−” indicates that the rat exhibited a weight gain of less than 20%)” and the “Hematology Result” value is on record as “+ (a “+” in “Hematology result” indicates indicates that the rat exhibited a reticulocyte count change of 65% or less)”.

Turning to `CC(=N)NCC[C@@H]1CCC[C@@H](c2ccc(-n3cc4cc(-c5cc(CCC[C@@H](N)C6CC6)cc(Cl)c5F)[nH]c4nc3=O)cc2)N1C` [Compound 123], the MIC in data set [2] and in [3] was not above 16 µg/mL in each case. Besides, the “BW Result” value in data set [4] is “+ (a “+” in “BW result” indicates that the rat exhibited a weight gain of 20% or more)”. The “Hematology Result” value in data set [4] is reported as “+ (a “+” in “Hematology result” indicates indicates that the rat exhibited a reticulocyte count change of 65% or less)”.

Molecule `COC[C@H](N)CCCc1cc(-c2cc3cn(-c4ccc([C@@H]5CCC[C@@H](CCNC(C)=N)N5)c(SC)c4)c(=O)nc3[nH]2)c(F)c(C(F)(F)F)c1` [Compound 199] displayed an MIC in [2] not above 16 µg/mL. In data set [3], this molecule gave an MIC not above 16 µg/mL. In data set [4], the “BW Result” value is on record as “+ (a “+” in “BW result” indicates that the rat exhibited a weight gain of 20% or more)” and the “Hematology Result” value is reported as “− (a “−” indicates indicates that the rat exhibited a reticulocyte count change of greater than 65%)”.
